System: Panc-1 xenografts
Test: Liposomal release from tumors following intratumoral administration
Assay type: in vivo, nude mice
Settings: 2 hours following injection, 5 nmol
Description: FIG. 13. Example of spatial and temporal control of PoP-liposome permeabilization a) Spatial control of B. subtilis killing with triggered antibiotic release. Gentamicin was loaded in PoP-liposomes and embedded in hot agar along with the bacteria. The indicated spot was irradiated with a 658 nm laser (200 mW/cm^2) for 10 minutes and the plates were photographed 24 hours later. b) Temporal control of cargo release in Panc-1 xenografts. Mice were imaged following intratumoral injection of 5 nmol of either free sulforhodamine B or sulforhodamine B entrapped at self-quenching concentrations in PoP-liposomes. Representative images are shown of the indicated time points and conditions. Laser activation was performed after 2 hours. Representative results shown with n=3 mice per treatment group.
Liposomal release from tumors following intratumoral administration: Panc-1 tumors were grown by injecting 20 g female nude mice (Charles River) with 3×10^6 Panc-1 cells in a 1:1 matrigel dilution (BD Biosciences) in the hind flank of the mice. Following several weeks of growth, the tumors were carefully injected intratumorally with sulforhodamine B-PoP-liposomes. Images were acquired with an in vivo fluorescence imager (IVIS Lumina II) at the indicated time points with the mice under isoflurane-induced anesthesia. […]

CCN(CC)c1ccc2c(-c3ccc(S(=O)(=O)O)cc3S(=O)(=O)[O-])c3ccc(=[N+](CC)CC)cc-3oc2c1 [free rhodamine, sulforhodamine B]
fluorescence in tumor after intratumoral injection: little fluorescence remaining in the tumor

Source: patent US10086074B2, “Compositions and method for light triggered release of materials from nanovesicles” (The Research Foundation for The State University of New York, priority 2012, dated 2018)
